ChEMBL document CHEMBL3885861, “Open TG-GATES”

Organism: Rattus norvegicus
Test: Open TG-GATES - Regimen: Single
Format: toxicity, organism-based, Sprague-Dawley
Design: regimen Single, gender Male, age 6 weeks
Conditions: in vivo, po, 0 mg/kg, route gavage, dose level Control; for APTT / Bas / Eos / Fbg / Hb / Ht / Lym / MCH / MCHC / MCV / Mono / Neu / PT / Plat / RBC / Ret / WBC: tissue Blood; for KIDNEY_L / KIDNEY_R / KIDNEY_TOTAL: tissue Kidney; for LIVER: tissue Liver; for A/G / ALP / ALT / AST / BUN / CRE / Ca / Cl / DBIL / GLC / IP / K / LDH / Na / PL / RALB / TBIL / TC / TG / TP / gamma-GTP: tissue Plasma

## CCCNC(=O)NS(=O)(=O)c1ccc(Cl)cc1 [CHLORPROPAMIDE]
9 h
  TERMINAL_BW: 194.8 g
  APTT: 18.5 s
  Bas: 0%
  Eos: 0.8%
  Fbg: 294.6 mg/dL
  Hb: 12.9 g/dL
  Ht: 39.6%
  Lym: 74.4%
  MCH: 21.3 pg
  MCHC: 32.8%
  MCV: 65.1 fL
  Mono: 2.2%
  Neu: 21%
  PT: 15.4 s
  Plat: 119.1 x10_4/uL
  RBC: 607.8 x10_4/ul
  Ret: 9.1%
  WBC: 91.1 x10_2/uL
  KIDNEY_L: 0.9 g
  KIDNEY_R: 0.9 g
  KIDNEY_TOTAL: 1.8 g
  LIVER: 7.6 g
  A/G: 0.9
  ALP: 1410 IU/L
  ALT: 42 IU/L
  AST: 74.6 IU/L
  BUN: 8.4 mg/dL
  CRE: 0.2 mg/dL
  Ca: 10.6 mg/dL
  Cl: 106.8 meq/L
  DBIL: 0.006 mg/dL
  GLC: 165.4 mg/dL
  IP: 10 mg/dL
  K: 3.9 meq/L
  LDH: 63.6 IU/L
  Na: 142.8 meq/L
  PL: 136.6 mg/dL
  RALB: 2.5 g/dL
  TBIL: 0.052 mg/dL
  TC: 84.4 mg/dL
  TG: 41.4 mg/dL
  TP: 5.4 g/dL
  gamma-GTP: 1 IU/L
24 h
  TERMINAL_BW: 211.4 g
  APTT: 16.9 s
  Bas: 0.2%
  Eos: 0.8%
  Fbg: 277.8 mg/dL
  Hb: 13 g/dL
  Ht: 40.6%
  Lym: 80%
  MCH: 21.7 pg
  MCHC: 32.2%
  MCV: 67.3 fL
  Mono: 2.8%
  Neu: 15%
  PT: 15.5 s
  Plat: 117.6 x10_4/uL
  RBC: 602.6 x10_4/ul
  Ret: 9.2%
  WBC: 102.7 x10_2/uL
  KIDNEY_L: 0.9 g
  KIDNEY_R: 0.9 g
  KIDNEY_TOTAL: 1.9 g
  LIVER: 10.1 g
  A/G: 0.8
  ALP: 1569 IU/L
  ALT: 44.8 IU/L
  AST: 71.8 IU/L
  BUN: 14.6 mg/dL
  CRE: 0.2 mg/dL
  Ca: 10.9 mg/dL
  Cl: 105.4 meq/L
  DBIL: 0.012 mg/dL
  GLC: 187 mg/dL
  IP: 8.5 mg/dL
  K: 4.2 meq/L
  LDH: 79.4 IU/L
  Na: 142.6 meq/L
  PL: 154 mg/dL
  RALB: 2.6 g/dL
  TBIL: 0.034 mg/dL
  TC: 82.6 mg/dL
  TG: 108.6 mg/dL
  TP: 5.6 g/dL
  gamma-GTP: 1 IU/L
